Active and inactive are the calls of the source. The calls are words filed in the database; no cut-off is given here.
Assays:
[1] = Cytotoxicity against mouse L5178 cells assessed as reduction in cell viability after 72 hrs by MTT assay; format: functional, cell-based; settings: L5178, 72 h
[2] = Cytotoxicity against mouse L5178B1 cells transfected with pHa MDR1/A retrovirus assessed as reduction in cell viability after 72 hrs by MTT assay; format: functional, cell-based; settings: MDR1, 72 h
NCI-H460 = test: Cytotoxicity against human NCI-H460 cells assessed as reduction in cell viability after 72 hrs by MTT assay; format: functional, cell-based; settings: NCI-H460, 72 h
[3] = Cytotoxicity against human NCI-H460/R cells transfected with MDR assessed as reduction in cell viability after 72 hrs by MTT assay; format: functional, cell-based; settings: NCI-H460, 72 h
A549 = test: Cytotoxicity against human A549 cells assessed as reduction in cell viability after 72 hrs by MTT assay; format: functional, cell-based; settings: A549, 72 h
NCI-H661 = test: Cytotoxicity against human NCI-H661 cells assessed as reduction in cell viability after 72 hrs by MTT assay; format: functional, cell-based; settings: NCI-H661, 72 h
HaCaT = test: Cytotoxicity against human HaCaT cells assessed as reduction in cell viability after 72 hrs by MTT assay; format: cell-based
MCF7 [4] = test: Cytotoxicity against human MCF7 cells assessed as reduction in cell viability after 72 hrs by MTT assay; format: functional, cell-based; settings: MCF7, 72 h
HeLa = test: Cytotoxicity against human HeLa cells assessed as reduction in cell viability after 72 hrs by MTT assay; format: functional, cell-based
SiHa = test: Cytotoxicity against human SiHa cells assessed as reduction in cell viability after 72 hrs by MTT assay; format: functional, cell-based
[5] = target: T1, Serine/threonine-protein kinase Chk1 (Homo sapiens) (UniProt O14757); test: Inhibition of CHK1 phosphorylation at S345 in human MCF7 cells at 10 uM pretreated for 30 mins followed by 10 J/m'2 irradiation and measured after 1 hr by Western blot analysis; format: cell-based
T1 sequence (whole entry): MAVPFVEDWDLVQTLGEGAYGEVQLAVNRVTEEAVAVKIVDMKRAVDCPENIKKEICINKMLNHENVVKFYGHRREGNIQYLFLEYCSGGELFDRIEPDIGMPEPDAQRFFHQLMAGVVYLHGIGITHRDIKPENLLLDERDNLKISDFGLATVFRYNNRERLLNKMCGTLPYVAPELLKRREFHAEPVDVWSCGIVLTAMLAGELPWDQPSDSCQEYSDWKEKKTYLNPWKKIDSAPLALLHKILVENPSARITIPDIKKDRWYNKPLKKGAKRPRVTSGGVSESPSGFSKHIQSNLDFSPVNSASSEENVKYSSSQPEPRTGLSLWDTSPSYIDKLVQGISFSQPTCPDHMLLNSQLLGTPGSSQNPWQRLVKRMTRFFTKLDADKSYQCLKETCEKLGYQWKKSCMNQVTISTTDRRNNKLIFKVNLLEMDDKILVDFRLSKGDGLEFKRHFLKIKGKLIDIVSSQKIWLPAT

[6] = target: Serine/threonine-protein kinase Chk2 (Homo sapiens) (UniProt O96017); test: Inhibition of CHK2 phosphorylation at T68 in human MCF7 cells at 10 uM pretreated for 30 mins followed by 10 J/m'2 irradiation and measured after 1 hr by Western blot analysis; format: cell-based
[7] = Antioxidant activity assessed as hydroxyl radical scavenging activity by measuring inhibition of damage to 2-deoxy-D-ribose after 3 mins by TBA-based Fenton reaction assay; format: functional
MCF7 [8] = test: Cytotoxicity against human MCF7 cells assessed as combination index measured at ED50 at H2O2/pcm ratio of 2.5:1 in presence of H2O2 after 48 hrs by MTT assay; format: functional
MCF7 [9] = test: Cytotoxicity against human MCF7 cells assessed as combination index measured at ED75 at H2O2/pcm ratio of 2.5:1 in presence of H2O2 after 48 hrs by MTT assay; format: functional
MCF7 [10] = test: Cytotoxicity against human MCF7 cells assessed as combination index measured at ED90 at H2O2/pcm ratio of 2.5:1 in presence of H2O2 after 48 hrs by MTT assay; format: functional
Liver = test: Antioxidant activity in rat liver microsomes assessed as reduction in lipid peroxidation; format: functional, Microsome
MCF7 [11] = test: Cytotoxicity against human MCF7 cells assessed as combination index measured at ED50 at H2O2/pcm ratio of 1.25:1 in presence of H2O2 after 48 hrs by MTT assay; format: functional
MCF7 [12] = test: Cytotoxicity against human MCF7 cells assessed as combination index measured at ED75 at H2O2/pcm ratio of 1.25:1 in presence of H2O2 after 48 hrs by MTT assay; format: functional
MCF7 [13] = test: Cytotoxicity against human MCF7 cells assessed as combination index measured at ED90 at H2O2/pcm ratio of 1.25:1 in presence of H2O2 after 48 hrs by MTT assay; format: functional
MCF7 [14] = test: Cytotoxicity against human MCF7 cells assessed as combination index measured at ED50 at H2O2/pcm ratio of 0.625:1 in presence of H2O2 after 48 hrs by MTT assay; format: functional
MCF7 [15] = test: Cytotoxicity against human MCF7 cells assessed as combination index measured at ED75 at H2O2/pcm ratio of 0.625:1 in presence of H2O2 after 48 hrs by MTT assay; format: functional
MCF7 [16] = test: Cytotoxicity against human MCF7 cells assessed as combination index measured at ED90 at H2O2/pcm ratio of 0.625:1 in presence of H2O2 after 48 hrs by MTT assay; format: functional
[17] = Stability in MeOH and H2O2 by HPLC-PDA assay; format: physicochemical
[18] = Drug metabolism assessed as methyl 3-(1-hydroxy-4-oxocyclohexa-2,5-dienyl)acrylate formation by reverse phase-HPLC and HPLC-MS analysis based Fenton reaction assay

Sequence of Serine/threonine-protein kinase Chk2 (Homo sapiens) (O96017 whole entry): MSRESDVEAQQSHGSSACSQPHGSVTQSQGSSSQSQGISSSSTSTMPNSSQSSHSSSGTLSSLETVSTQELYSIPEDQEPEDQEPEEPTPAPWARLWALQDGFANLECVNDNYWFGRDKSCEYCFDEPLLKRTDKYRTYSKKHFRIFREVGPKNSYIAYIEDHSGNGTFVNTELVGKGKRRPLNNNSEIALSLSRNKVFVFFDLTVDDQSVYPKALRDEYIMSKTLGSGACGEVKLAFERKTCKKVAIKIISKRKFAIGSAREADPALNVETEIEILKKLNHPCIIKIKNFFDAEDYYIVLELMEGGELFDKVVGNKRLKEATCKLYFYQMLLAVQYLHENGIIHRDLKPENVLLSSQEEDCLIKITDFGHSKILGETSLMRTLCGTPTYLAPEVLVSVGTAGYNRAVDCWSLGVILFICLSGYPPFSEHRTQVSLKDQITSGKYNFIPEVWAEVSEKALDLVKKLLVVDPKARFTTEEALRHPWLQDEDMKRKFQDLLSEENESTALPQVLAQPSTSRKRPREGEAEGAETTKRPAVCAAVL

inhibition [5]: inactive | inhibition [6]: inactive | IC50 (Liver): 0.4 µM | Stability [17]: <= 92 hr
Structure (SMILES): COC(=O)/C=C/c1ccc(O)cc1 [METHYL P-HYDROXYCINNAMATE]
IC50 [1]: 126 µM | IC50 [2]: > 150 µM | IC50 (NCI-H460): 120 µM | IC50 [3]: 1040 µM | IC50 (A549): 323 µM | IC50 (NCI-H661): 289 µM | IC50 (HaCaT): 311 µM | IC50 (MCF7 [4]): > 400 µM | IC50 (HeLa): > 150 µM | IC50 (SiHa): > 150 µM | IC50 [7]: 345 µM | CI (MCF7 [8]): 0.79 | CI (MCF7 [9]): 0.6 | CI (MCF7 [10]): 0.45 | CI (MCF7 [11]): 0.93 | CI (MCF7 [12]): 0.6 | CI (MCF7 [13]): 0.39 | CI (MCF7 [14]): 1.06 | CI (MCF7 [15]): 0.68 | CI (MCF7 [16]): 0.44 | Drug metabolism [18]: Metabolite detected
